For 53 molecules, IC50 results are on record in US11780845B2 (Relay Therapeutics, Inc., priority 2019, dated 2023).

In test [1] the target is FGFR2 (Homo sapiens (Human), UniProt P21802). The experiment in a line: Biochemical FGFR2 Caliper assay.
For test [2], the system named is SNU-16. In words: Cell SNU-16 assay. In kind it is cell-based.
The mark [3] stands for this setting: Homo sapiens, SNU-16, SNU-16 cells.

Sequence of FGFR2 (P21802 22-821): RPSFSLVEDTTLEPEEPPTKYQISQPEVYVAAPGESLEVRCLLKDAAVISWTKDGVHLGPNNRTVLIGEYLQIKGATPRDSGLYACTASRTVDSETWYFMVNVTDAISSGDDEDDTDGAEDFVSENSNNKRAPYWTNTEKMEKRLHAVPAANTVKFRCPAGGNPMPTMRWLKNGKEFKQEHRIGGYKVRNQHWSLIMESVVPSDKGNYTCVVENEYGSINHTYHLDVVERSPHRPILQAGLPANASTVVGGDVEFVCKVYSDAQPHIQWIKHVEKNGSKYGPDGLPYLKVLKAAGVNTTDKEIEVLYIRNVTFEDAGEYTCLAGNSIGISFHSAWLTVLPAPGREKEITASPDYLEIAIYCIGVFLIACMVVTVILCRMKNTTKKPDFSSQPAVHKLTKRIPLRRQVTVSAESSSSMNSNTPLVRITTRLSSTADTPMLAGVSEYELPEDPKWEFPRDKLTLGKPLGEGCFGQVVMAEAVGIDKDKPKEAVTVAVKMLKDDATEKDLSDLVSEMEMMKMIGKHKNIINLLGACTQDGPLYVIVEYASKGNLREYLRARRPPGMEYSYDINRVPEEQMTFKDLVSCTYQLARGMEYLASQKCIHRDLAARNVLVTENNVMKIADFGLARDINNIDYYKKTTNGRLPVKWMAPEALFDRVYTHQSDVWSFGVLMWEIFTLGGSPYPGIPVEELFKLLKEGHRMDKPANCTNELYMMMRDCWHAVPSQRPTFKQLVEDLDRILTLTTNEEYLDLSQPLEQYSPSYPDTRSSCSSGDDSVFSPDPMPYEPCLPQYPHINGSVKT

One may read the IC50 as the concentration that inhibits the measured activity by half. Consider `C=C(C)C(=O)Nc1ccc(-c2c(C3=CC[C@@H](S(=O)(=O)N4CCCC4)CC3)c3c(N)ncnc3n2C)c(C)c1` [Example 1115], for which the IC50 in test [1] and in test [2] (setting [3]) was 1000 to 100000 nM each time.
For the molecule `C=C(C)C(=O)Nc1ccc(-c2c(C3=CC[C@H](S(=O)(=O)N4CCCC4)CC3)c3c(N)ncnc3n2C)c(C)c1` [Example 1116], the concentration for half-maximal inhibition (IC50) in test [1] was 100 to 250 nM; in test [2] (setting [3]), ≤ 100 nM.
As to `C#Cc1ncc(-c2c(-c3ccc(Oc4nccc(C)n4)cc3)c3c(N)ncnc3n2C)cn1` [Example 1117], the IC50 is 100 to 250 nM in test [1] and ≤ 100 nM in test [2] (SNU-16 cells).
Take `CC1=C[C@H](C)N(c2ccc(-c3c(-c4ccc(Oc5nccc(C)n5)cc4)c4c(N)ncnc4n3C)cc2)C1=O` [Example 1118]: the IC50 in test [1] is < 100 nM; in test [2] (setting [3]) it was ≤ 100 nM.
As for `C#Cc1cc(C)c(-c2c(-c3ccc(Oc4nccc(C)n4)c(F)c3)c3c(N)ncnc3n2C)cn1` [Example 1119], the IC50 in test [1] was 1000 to 100000 nM; in test [2] (SNU-16 cells), 250 to 1000 nM.
For the molecule `C=CC(=O)Nc1ccc(-c2c(-c3ccc(O)cc3)c3c(N)ncnc3n2C)cc1` [Example 1120], the IC50 in test [1] was < 100 nM; in test [2] (setting [3]), ≤ 100 nM.
For `Cc1cccc(Oc2ccc(-c3c(-c4cccc(NC#N)c4)n(C)c4ncnc(N)c34)cc2)n1` [Example 1121], in that order: < 100 nM and ≤ 100 nM.
In the case of `C=C(C)C(=O)Nc1ccc(-c2c(-c3ccc(-c4nnc(C)o4)cc3)c3c(N)ncnc3n2C)cc1` [Example 1123], the 50% inhibitory concentration (IC50) in test [1] was in the range of 1000 to 100000 nM; in test [2] (setting [3]), 250 to 1000 nM.
As for `C=C(C)C(=O)Nc1ccc(-c2c(-c3ccc(-c4ccn(C)n4)nc3)c3c(N)ncnc3n2C)cc1` [Example 1124], the IC50 in test [1] lay in the range of 1000 to 100000 nM; in test [2] (setting [3]), 250 to 1000 nM.
Consider `C=C(C)C(=O)Nc1ccc(-c2c(-c3ccc(Oc4nccc(C)n4)cc3)c3c(C)ncnc3n2C)c(C)c1` [Example 1125], for which the half-inhibitory concentration (IC50) in test [1] and in test [2] (setting [3]) was 1000 to 100000 nM in each case.
Turning to `C=C(C)C(=O)Nc1ccc(-c2c(-c3ccc(Oc4nccc(C)n4)c(F)c3)c3c(C)ncnc3n2C)c(C)c1` [Example 1126], the IC50 is < 100 nM in test [1] and ≤ 100 nM in test [2] (setting [3]).
The like results for `C=CC(=O)Nc1ccc(-c2c(-c3cn[nH]c3)c3c(N)ncnc3n2C)cc1` [Example 1128] were, in that order, < 100 nM and ≤ 100 nM.
`C#Cc1cc(C)c(-c2[nH]c3ncnc(N)c3c2-c2ccc(Oc3nccc(C)n3)cc2)cn1` [Example 1130]: the IC50 in test [1] and in test [2] (setting [3]) was 250 to 1000 nM in each case.
`C=C1C[C@H](C)N(c2ccc(-c3c(-c4ccc(Oc5nccc(C)n5)cc4)c4c(N)ncnc4n3C)cc2)C1=O` [Example 1131]: the IC50 is < 100 nM in test [1] and ≤ 100 nM in test [2] (setting [3]).
In the case of `C=CC(=C)Nc1ccc(-c2c(-c3cnn(C)c3)c3c(N)ncnc3n2C)c(C)c1` [Example 1132], the 50% inhibitory concentration (IC50) in test [1] lay in the range of 1000 to 100000 nM; in test [2] (setting [3]) it was 250 to 1000 nM.
As to `C=C1C(=O)N(c2ccc(-c3c(-c4ccc(Oc5nccc(C)n5)cc4)c4c(N)ncnc4n3C)cc2)C[C@@H]1C` [Example 1133], the IC50 in test [1] and in test [2] (setting [3]) was 100 to 250 nM throughout.
Take `C=C1C(=O)N(c2ccc(-c3c(-c4ccc(Oc5nccc(C)n5)cc4)c4c(N)ncnc4n3C)cc2)C[C@H]1C` [Example 1135]: the IC50 in test [1] was 250 to 1000 nM; in test [2] (setting [3]) it was 100 to 250 nM.
Consider `C#Cc1cc(C)c(-c2c(-c3ccc(Oc4nccc(C)n4)cc3)c3c(N)ncnc3n2C)nn1` [Example 1136], for which the figures for the IC50 in test [1] and in test [2] (setting [3]) were < 100 nM and ≤ 100 nM, respectively.
As for `C=CC(=O)Nc1ccc(-c2c(-c3cc4ccccc4[nH]3)c3c(N)ncnc3n2C)cc1` [Example 1138], the concentration for half-maximal inhibition (IC50) was < 100 nM in test [1] and ≤ 100 nM in test [2] (setting [3]).
For `C#Cc1cc(C)c(-c2c(-c3ccc(C(=O)NC4CCC4)c(OC)c3)c3c(N)ncnc3n2C)cn1` [Example 1143], in that order: 1000 to 100000 nM and 250 to 1000 nM.
`C#Cc1cc(C)c(-c2c(-c3cnn(C)c3)c3c(N)ncnc3n2C)cn1` [Example 1144]: the figures for the IC50 in test [1] and in test [2] (setting [3]) were 100 to 250 nM and ≤ 100 nM, respectively.
With `C=C(C)C(=O)Nc1ccc(-c2c(-c3ccc(-c4noc(C)n4)cc3)c3c(N)ncnc3n2C)cc1` [Example 1145], the concentration for half-maximal inhibition (IC50) in test [1] and in test [2] (setting [3]) was 1000 to 100000 nM throughout.
For the molecule `C=CC(=O)Nc1ccc(-c2c(-c3ccc4[nH]ccc4c3)c3c(N)ncnc3n2C)cc1` [Example 1148], the half-maximal inhibitory concentration (IC50) in test [1] was < 100 nM; in test [2] (setting [3]), ≤ 100 nM.
As for `C=C(C)C(=O)Nc1ccc(-c2c(-c3ccc(-n4cc(C)cn4)nc3)c3c(N)ncnc3n2C(C)C)cc1` [Example 1151], the IC50 fell in the range of 100 to 250 nM in test [1] and 250 to 1000 nM in test [2] (setting [3]).
As to `C#Cc1ncc(-c2c(-c3ccc(Oc4nccc(C)n4)c(F)c3)c3c(N)ncnc3n2C)c(C)n1` [Example 1153], the concentration for half-maximal inhibition (IC50) in test [1] was < 100 nM; in test [2] (setting [3]) it was 100 to 250 nM.
For `C=CC(=O)Nc1ccc(-c2c(-c3cc[nH]c3)c3c(N)ncnc3n2C)cc1` [Example 1154], in that order: < 100 nM and ≤ 100 nM.
Turning to `C=C(C)C(=O)Nc1ccc(-c2c(-c3ccc(-c4ccnn4C)nc3)c3c(N)ncnc3n2C)cc1` [Example 1155], the IC50 in test [1] was < 100 nM; in test [2] (setting [3]), ≤ 100 nM.
Turning to `C=CC(=O)Nc1ccc(-c2c(-c3c[nH]c4ccccc34)c3c(N)ncnc3n2C)cc1` [Example 1157], the IC50 in test [1] and in test [2] (setting [3]) was 250 to 1000 nM throughout.
For `C=CC(=O)Nc1ccc(-c2c(-c3ccc(=O)[nH]c3)c3c(N)ncnc3n2C)cc1` [Example 1158], the results for the IC50 in test [1] and in test [2] (setting [3]) were < 100 nM and ≤ 100 nM, respectively.
For `C#Cc1cc(C)c(-c2c(-c3ccc(OC(C)C)cc3)c3c(N)ncnc3n2C)cn1` [Example 1160], in that order: < 100 nM and ≤ 100 nM.
With `C=C(C)C(=O)Nc1cc(-c2c(-c3ccc(Oc4nccc(C)n4)c(F)c3)c3c(N)ncnc3n2C)n(C)n1` [Example 1161], the IC50 in test [1] was < 100 nM; in test [2] (setting [3]), ≤ 100 nM.
Take `CC#Cc1ncc(-c2c(-c3ccc(Oc4nccc(C)n4)cc3)c3c(N)ncnc3n2C)c(C)n1` [Example 1162]: the IC50 in test [1] was < 100 nM; in test [2] (setting [3]), ≤ 100 nM.
In the case of `C#Cc1cc(C)c(-c2c(-c3ccc(Oc4nccc(C)n4)c(F)c3)c3c(C)ncnc3n2C)cn1` [Example 1163], the IC50 in test [1] was < 100 nM; in test [2] (setting [3]) it was ≤ 100 nM.
As to `C#Cc1ncc(-c2c(-c3ccc(Oc4nccc(C)n4)cc3)c3c(N)ncnc3n2C)c(C)c1F` [Example 1164], the values for the half-maximal inhibitory concentration (IC50) in test [1] and in test [2] (setting [3]) were < 100 nM and ≤ 100 nM, respectively.
With `C=C(C)C(=O)Nc1cc(C)c(-c2c(-c3ccc(Oc4nccc(C)n4)cc3)c3c(N)ncnc3n2C)c(C)c1` [Example 1165], the values for the IC50 in test [1] and in test [2] (setting [3]) were < 100 nM and ≤ 100 nM, respectively.
`C#Cc1nc2ccc(-c3c(-c4ccc(Oc5nccc(C)n5)cc4)c4c(N)ncnc4n3C)cc2o1` [Example 1167]: the IC50 in test [1] is < 100 nM; in test [2] (setting [3]) it was ≤ 100 nM.
As to `C#Cc1ccc(-c2c(-c3ccc(Oc4nccc(C)n4)c(F)c3)c3c(N)ncnc3n2C)c(C)n1` [Example 1168], the IC50 in test [1] is < 100 nM; in test [2] (setting [3]), 1000 to 100000 nM.
Take `C#Cc1ncc(-c2c(-c3ccc(Oc4nccc(C)n4)c(F)c3)c3c(C)ncnc3n2C)c(C)n1` [Example 1170]: the values for the IC50 in test [1] and in test [2] (setting [3]) were < 100 nM and ≤ 100 nM, respectively.
Turning to `C#Cc1nc(C)c(-c2c(-c3ccc(Oc4nccc(C)n4)cc3)c3c(N)ncnc3n2C)cc1F` [Example 1171], the IC50 was < 100 nM in test [1] and ≤ 100 nM in test [2] (setting [3]).
For `C=C(C)c1nc(-c2ccc(-c3c(-c4ccccc4)c4c(N)ncnc4n3C)cc2)no1` [Example 1172], in that order: < 100 nM and ≤ 100 nM.
On to `C#Cc1ccc(-c2c(-c3ccc(Oc4nccc(C)n4)cc3)c3c(N)ncnc3n2C)cc1F` [Example 1175], for which the half-maximal inhibitory concentration (IC50) in test [1] was 100 to 250 nM; in test [2] (setting [3]), ≤ 100 nM.
The like results for `C#Cc1c(F)cc(-c2c(-c3ccc(Oc4nccc(C)n4)cc3)c3c(N)ncnc3n2C)cc1F` [Example 1177] were, in that order, < 100 nM and ≤ 100 nM.
For `C#Cc1ncc(-c2c(C3=CC[C@@H](C(=O)N4CCCC4)CC3)c3c(N)ncnc3n2C)c(C)n1` [Example 1180], in that order: < 100 nM and ≤ 100 nM.
On to `C#Cc1cnc(-c2c(-c3ccc(Oc4nccc(C)n4)cc3)c3c(N)ncnc3n2C)cn1` [Example 1181], for which the IC50 was < 100 nM in test [1] and ≤ 100 nM in test [2] (setting [3]).
Regarding `C#Cc1ncc(-c2c(-c3ccc(C(=O)N4CCC[C@@H]4C#C)cc3)c3c(N)ncnc3n2C)c(C)n1` [Example 1182], the results for the IC50 in test [1] and in test [2] (setting [3]) were < 100 nM and ≤ 100 nM, respectively.
Regarding `C#Cc1ccc(-c2c(-c3ccc(Oc4nccc(C)n4)c(F)c3)c3cncnc3n2C)c(C)n1` [Example 1183], the figures for the IC50 in test [1] and in test [2] (setting [3]) were < 100 nM and ≤ 100 nM, respectively.
For `C#Cc1ncc(-c2c(-c3ccc(C(=O)N4CCC[C@H]4C#C)cc3)c3c(N)ncnc3n2C)c(C)n1` [Example 1184], in that order: 1000 to 100000 nM and 1000 to 100000 nM.
Consider `C#Cc1cc(C)c(-c2c(-c3ccc(C(=O)N4CCC[C@H]4C#C)cc3)c3c(N)ncnc3n2C)cn1` [Example 1185], for which the IC50 in test [1] was < 100 nM; in test [2] (setting [3]), ≤ 100 nM.
As to `C=C1CCN(c2ccc(-c3c(-c4ccc(Oc5nccc(C)n5)c(F)c4)c4c(C)ncnc4n3C)c(C)c2)C1=O` [Example 1186], the IC50 is < 100 nM in test [1] and ≤ 100 nM in test [2] (setting [3]).
Consider `C#Cc1cc(C)c(-c2c(-c3ccc(C(=O)N4CCC[C@@H]4C#C)cc3)c3c(N)ncnc3n2C)cn1` [Example 1187], for which the IC50 in test [1] was < 100 nM; in test [2] (setting [3]) it was ≤ 100 nM.
Take `C#Cc1ncc(-c2c(-c3ccc(Oc4nccc(C)n4)cc3)c3c(N)ncnc3n2C)cc1C#N` [Example 1188]: the values for the IC50 in test [1] and in test [2] (setting [3]) were < 100 nM and ≤ 100 nM, respectively.
For `C=C(C)C(=O)Nc1ccc(-c2c(C3=CCN(Cc4ccccc4)CC3)c3c(N)ncnc3n2C)cc1` [Example 1189], in that order: < 100 nM and ≤ 100 nM.
Regarding `C#Cc1cc(-c2c(-c3ccccc3)c3c(N)ncnc3n2C)ccn1` [Example 1193], the IC50 in test [1] and in test [2] (setting [3]) was 250 to 1000 nM throughout.
